Assay results as given in article PMC9317902, “Multi-Targeting Approach in Glioblastoma Using Computer-Assisted Drug Discovery Tools to Overcome the Blood–Brain Barrier and Target EGFR/PI3Kp110β Signaling” (Cancers, 2022).
Read-outs that look alike come from different tables or passages of the source. One block for each molecule: values may come before it.

Tests used:
U87MG cells [1] = experiment: Apoptotic cells by nuclear morphology (Hoechst) in U87MG; type: cell-based; conditions: for apoptotic cells: at EC50, 9 h
HBMEC [2] = experiment: MTT cell viability, HBMEC; type: cell-based, human; conditions: 24 h, 100 µM
Protocol: (§1) To analyze molecules’ cytotoxicity, U87MG and U87MG-wtEGFR cells were seeded into 96-well plates at a density of 2.5 × 10^4 cells/mL, and after 48 h were incubated with 0.1, 1, 10, or 100 µM of each molecule diluted in (non-supplemented) cell medium for 24 h. The half-maximal effective concentration (EC50) of the most cytotoxic compounds was quantified. Dose–response data were also obtained for treatment with triton X-100 (positive control) and DMSO (vehicle; negative control). The cytotoxicity of selected molecules from initial screening was tested in HBMEC at 100 µM for 24 h. HBMEC were seeded at a density of 8 × 10^4 cell/mL in 96-well plates and after 48 h were incubated with the molecules.
(§2) In screening assays, cell viability was evaluated using thiazolyl blue tetrazolium bromide (MTT). Briefly, a culture medium containing 0.5 mg/mL of MTT was added to each well for 90 min at 37 °C. The supernatant was removed and the formed formazan crystals in viable cells were solubilized with 0.04 N HCl in isopropanol solution. The absorbance was recorded using a microplate reader (Zenyth 3100, Anthos Labtec Instruments, Salzburg, Austria) at 595 nm, and values of cell viability were calculated as percentage of negative control.

HBMEC [3] = experiment: HBMEC integrity and morphology (β-catenin, F-actin immunofluorescence); type: cell-based, human
Description: (§3) HBMEC in coverslips were stained for: the junctional protein β-catenin (1:100, Thermo Fisher Scientific, Waltham, MA, USA, #71-2700), the cytoskeleton protein F-actin (1:1000, Phalloidin dye, Abcam, Cambridge, UK, #ab17675), and the efflux transporter P-gp (1:50, Santa Cruz Biotechnology, Dallas, TX, USA, #sc-390883). HBMEC seeded on polyester inserts for transport assays were also stained for the junctional protein zonula occludens-1 (ZO-1, 1:200, Thermo Fisher Scientific, Waltham, MA, USA, #40-2200) and the cytoskeleton protein vimentin (1:100, Thermo Fisher Scientific, Waltham, MA, USA, #MA3745).
(§4) Incubations with primary antibodies occurred overnight at 4 °C. Incubation with the secondary antibodies Alexa Fluor 555 (1:500, Thermo Fisher Scientific, Waltham, MA, USA, #A21428) or Alexa Fluor 488 (1:500, Thermo Fisher Scientific, Waltham, MA, USA, #A11001) lasted for 1 h at room temperature. Nuclei were counterstained with Hoechst 33342 dye (1:1000, Thermo Fisher Scientific, Waltham, MA, USA, #33342) for 10 min. Before mounting with DPX (Merck Millipore, Burlington, MA, USA), cells were dehydrated with methanol. Negative controls were performed.
(§5) All acquired images were treated in ImageJ (NIH, Bethesda, MD, USA). Assessment of nuclear morphology following Hoechst staining was evaluated. For fluorescence intensity measures, the regions of interest were selected in Image J, and corresponding integrated densities were obtained. The representative 3D plots for BBB integrity were obtained by merged pixel intensity using the surface plot tool of Image J. For F-actin stress fibers analysis, the plot profile tool of Image J was used considering each defined cell-ferret diameter.
For analysis of β-catenin internalization and HBMEC morphological changes, Icy software was used. At least 5 cells per field were delineated and the conveyed values of membrane/interior pixels and roundness (area/perimeter^2) were exported and analyzed. Taking advantage of membrane staining (β-catenin), the BBB’s integrity was also analyzed by quantifying the total area of intercellular gaps in the HBMEC monolayer.

P-gp = P-gp expression in HBMEC (immunofluorescence); type: cell-based, human; conditions: U87MG EC50, 9 h
Description: as §3, §4, §5

U87MG-wtEGFR cells = experiment: MTT cell viability, U87MG-wtEGFR; type: cell-based; conditions: 24 h; for cell death: screening 0.1-100 µM
Protocol: as §1, with “The half-maximal effective concentration (EC50) of the most cytotoxic compounds was quantified.” left out
In screening assays, cell viability was evaluated using thiazolyl blue tetrazolium bromide (MTT). Briefly, a culture medium containing 0.5 mg/mL of MTT was added to each well for 90 min at 37 °C. The supernatant was removed and the formed formazan crystals in viable cells were solubilized with 0.04 N HCl in isopropanol solution.

phospho-EGFR = experiment: Immunofluorescence of phospho-EGFR in U87MG cells; type: cell-based
U87MG cells [4] = experiment: MTT cell viability, U87MG; type: cell-based; conditions: 24 h; for EC50 / cell death: U87MG; for cell death: screening 0.1-100 µM
Protocol: as §1, §2

phospho-AKT = experiment: Immunofluorescence of phospho-AKT in U87MG cells; type: cell-based; conditions: for inhibition of phospho-AKT expression: at EC50, after 6 h exposure
[5] = test system: patient-derived cell lines; design: method as in PMID 34794398; conditions: 72 h, read-out: median IC50; cited from earlier work
U87 cells = test system: U87 cells; design: method as in PMID 34794398; conditions: depending on the incubation time; cited from earlier work
[6] = several cell-based studies; cited from earlier work
U87MG cells [7] = experiment: Abluminal conditioned medium of HBMEC on U87MG; type: cell-based; conditions: 24 h, MTT
Protocol: To evaluate disruptive effects in HBMEC monolayer when co-cultured, a transport assay using HBMEC monoculture was conducted. After 2 h of molecules incubation, the abluminal conditioned media were collected and used to supply U87MG or U87MG-wtEGFR cells for 24 h, which grew to confluence for 3 days. HBMEC were also tested for barrier integrity, and MTT assays were performed at the end of incubation.

U87MG cells [8] = experiment: BBB-GB co-culture model HBMEC:U87MG; type: cell-based
Protocol: To assess molecule cytotoxicity in GB cells after crossing the HBMEC monolayer, a co-culture BBB-GB model was used. HBMEC were seeded in the Transwell apparatus as described above. After 5 days, U87MG or U87MG-wtEGFR cells were seeded (1.2 × 10^5 cell/mL) in the lower chamber. After 3 days of co-culture, upper chamber content was replaced with fresh medium (control) or medium containing each molecule at respective EC50. After 2 h, inserts were removed and tested for barrier integrity by TEER readings and immunofluorescence analysis, whereas GB cells were maintained in culture for 24 h to further assess cell viability by MTT assay.

HBMEC monolayer = experiment: Transwell in vitro BBB model: transport (UPLC-MS/MS) and barrier integrity; type: in vitro ADME, human
Protocol: To evaluate molecules’ BBB transport, a well-validated two-chamber BBB model, relying on the use of a microporous semipermeable membrane (Transwell insert) that separates the upper (luminal: “blood side”) and the lower (abluminal: “brain side”) chambers, was used as usual in our team. Briefly, HBMEC were seeded on polyester inserts (0.4 μm, Corning Costar Corp., New York, NY, USA) at a density of 8 × 10^4 cell/insert and treated after 8 days in culture. Inserts were coated with rat-tail collagen-I (BD Biosciences, Erembodegem, Aalst, Belgium) before seeding. Transport assays were conducted in Hank’s Balanced Salt Solution (HBSS, Gibco, Waltham, MA, USA) with calcium and magnesium, supplemented with 0.1% FBS.
Samples from upper and lower chambers were deproteinized using acetonitrile (ACN) (1:3) in ice-cold conditions, centrifuged at 15,300× g for 5 min at 4 °C and the respective supernatants were frozen until subsequent analysis.
The identification and quantification of molecules of interest were achieved by ultra-performance liquid chromatography–tandem mass spectrometry (UPLC-MS/MS) analysis using a triple quadrupole and Masslynx 4.1 software (Acquity TQ Waters). The separation of analytes was performed using a reversed-phase column Purospher STAR, RP-18 endcapped, 2 µm; Hibar HR 50-2.1 (Merck, Rahway, NJ, USA) at 35 °C, and a linear gradient (0.1% formic acid (A): ACN with 0.1% formic acid (B)) at a flow rate of 0.30 mL/min. The detection of analytes was based on electrospray ionization in the positive mode (ESI+) and acquisition in multiple reaction monitoring mode (MRM) at the following settings: ESI capillary voltage 3.0 kV, cone voltage 30 V, extractor voltage 1 V, RF lens voltage 0.1 V, desolvation gas flow 750 L/h at 350 °C, cone gas flow 50 L/h at 120 °C. Calibration curves were based on external standards using at least 8-points within the intended range, injected as duplicates. Analytes were quantified with a maximum deviation of 15% between the MRM1/MRM2 ratio. Each sample was injected in triplicate. Endothelial transport was calculated based on the ratio of lower compartment concentration and the sum of upper and lower compartments concentrations.
HBMEC monolayer integrity was ensured during BBB transport assays by TEER measurements and sodium-fluorescein paracellular permeability assessment, as previously described. TEER readings were performed using an EndOhm^TM chamber coupled to an EVOMX resistance meter (World Precision Instruments, Inc., Sarasota, FL, USA) and sodium fluorescein levels were measured using a Hitachi F-2000 fluorescence spectrophotometer.

[9] = U87MG-wtEGFR, MTT, read-out: EC50

HBMEC shape (roundness) (HBMEC [3]; human, 9 h): increased cell roundness
disrupted barrier integrity (endothelial gaps), of control (HBMEC [3]; human, 9 h): 78%
β-catenin expression and location (HBMEC [3]; human, 9 h): irregular and discontinuous appearance
EC50 (U87MG-wtEGFR cells; [9]): 50.4 ± 5.21 µM
EC50 (U87MG cells [4]; Homo sapiens, U-87 MG): 129 ± 14.5 µM
Compound: Brc1ccc(Nc2ncnc3ccccc23)cc1 [Mol 17]
apoptotic cells (U87MG cells [1]): ~40%
impairment of HBMEC cell viability (HBMEC [2]; human): about 65%
F-actin stress fibers per cell (HBMEC [3]; human, 9 h): highly increased the number of stress fibers/cell
P-gp expression (mean intensity) in HBMEC (P-gp): significant increase in P-gp mean intensity
cell death (U87MG-wtEGFR cells; U87MG-wtEGFR, MTT): ≥ 50%
phospho-EGFR expression, of that observed in control (phospho-EGFR; at EC50, 9 h): about 30%
cell death (U87MG cells [4]): ≥ 50%

Compound: C=CC(=O)Nc1ccc2ncnc(Nc3cccc(Br)c3)c2c1 [Mol 27]
inhibition of phospho-AKT expression (phospho-AKT): > 50%
apoptotic cell death (U87MG cells [1]; at EC50, 6 h): 12.8%
apoptotic cells (U87MG cells [1]): 31.9%
impairment of HBMEC cell viability (HBMEC [2]; MTT): ~58%
F-actin stress fibers per cell (HBMEC [3]; HBMEC, U87MG EC50, 9 h): highly increased the number of stress fibers/cell
HBMEC shape (roundness) (HBMEC [3]; HBMEC, U87MG EC50, 9 h): increased cell roundness
β-catenin expression and location (HBMEC [3]; HBMEC, U87MG EC50, 9 h): irregular and discontinuous appearance
disrupted barrier integrity (endothelial gaps), of control (HBMEC [3]; HBMEC, U87MG EC50, 9 h, β-catenin staining): 82%
P-gp expression (mean intensity) in HBMEC (P-gp): significant increase in P-gp mean intensity
EC50 (U87MG cells [4]; Homo sapiens, U-87 MG): 22.7 ± 2.22 µM
cell death (U87MG cells [4]): ≥ 50%

Compound: Cn1nnc2c(C(N)=O)ncn2c1=O [TMZ, temozolomide]
IC50 [5]: 800 µM
IC50 (U87 cells): 124 to 230 µM
doses at which more than 50% cytotoxicity was seen [6]: up to 4000 µM

Compound: C=CC(=O)Nc1cc2c(Nc3ccc(F)c(Cl)c3)ncnc2cc1OCCCN1CCOCC1 [Mol 25, canertinib, reference compound]
inhibition of phospho-AKT expression (phospho-AKT): > 50%
apoptotic cells (U87MG cells [1]): ~85%
impairment of HBMEC cell viability (HBMEC [2]; human): ~100%
HBMEC detachment (HBMEC [3]; human, 9 h): 100%
EC50 (U87MG-wtEGFR cells): 11.3 ± 2.15 µM
cell death (U87MG-wtEGFR cells; U87MG-wtEGFR, MTT): ≥ 50%
reduction of mean intensity of phosphorylated EGFR (phospho-EGFR; at EC50, 9 h): 92.6%
inhibition of phospho-EGFR expression (phospho-EGFR; at EC50, after 6 h exposure): > 50%
viability at 100 µM (U87MG cells [4]; Homo sapiens, U-87 MG, 100 µM, GB cell line not given, read-out: viable cells): ~0%
EC50 (U87MG cells [4]; Homo sapiens, U-87 MG): 16.3 ± 2.26 µM
cell death (U87MG cells [4]): ≥ 50%

TEER of HBMEC (U87MG cells [8]; 2 h at EC50, mono- or co-culture system): TEER readings were not decreased
HBMEC shape (roundness) (HBMEC [3]): no significant changes in HBMEC shape
EC50 (U87MG-wtEGFR cells; [9]): 27.6 ± 5.91 µM
EC50 (U87MG cells [4]; Homo sapiens, U-87 MG): 104 ± 14.9 µM
Compound: CCCCN1CCCc2cc(CN(CCN3CCOCC3)C(=S)Nc3cc(F)cc(F)c3)ccc21 [Mol 19]
U87MG cell viability with basolateral conditioned medium of HBMEC (U87MG cells [7]): none of the molecules induced a statistically significant difference
phosphorylated AKT expression compared with control (phospho-AKT; at EC50, 1-9 h): decreased expression
U87MG cell viability in co-culture system (U87MG cells [8]; added to upper chamber at EC50 for 2 h, MTT after 24 h): impaired
apoptotic cells (U87MG cells [1]): about 35%
HBMEC permeability to sodium fluorescein (Pe) (HBMEC monolayer; U87MG EC50): no statistical differences between treated cells and control
TEER of HBMEC monolayer (HBMEC monolayer; U87MG EC50, 30 min): None of the molecules markedly changed the TEER
endothelial transport efficiency, 30 vs. 120 min (HBMEC monolayer; UPLC-MS/MS): transported across the HBMEC monolayer in a time-dependent manner
transport across the BBB endothelium (HBMEC monolayer; UPLC-MS/MS, 30 and 120 min): could be transported across the BBB endothelium
β-catenin expression and location (HBMEC [3]): absence of changes in β-catenin expression and location
P-gp expression (mean intensity) in HBMEC (P-gp): No significant changes in P-gp expression
cell death (U87MG-wtEGFR cells; U87MG-wtEGFR, MTT): ≥ 50%
cell death (U87MG cells [4]): ≥ 50%
